# Results taken from PubChem BioAssay (NCI).
#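 GI50: concentration for 50% inhibition of growth. TGI: total growth inhibition.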
# How the values were obtained:
# Test in all cases: growth of human tumour cells (NCI), 384-well format
# 786-0 renal = test system: 786-0 renal
# A498 renal = test system: A498 renal
# A549 NSCLC = test system: A549 NSCLC
# ACHN renal = test system: ACHN renal
# BT-549 breast = test system: BT-549 breast
# CAKI-1 renal = test system: CAKI-1 renal
# CCRF-CEM leukemia = test system: CCRF-CEM leukemia
# COLO 205 colon = test system: COLO 205 colon
# DU-145 prostate = test system: DU-145 prostate
# EKVX NSCLC = test system: EKVX NSCLC
# HCC-2998 colon = test system: HCC-2998 colon
# HCT-116 colon = test system: HCT-116 colon
# HCT-15 colon = test system: HCT-15 colon
# HL-60(TB) leukemia = test system: HL-60(TB) leukemia
# HOP-62 NSCLC = test system: HOP-62 NSCLC
# HOP-92 NSCLC = test system: HOP-92 NSCLC
# HS 578T breast = test system: HS 578T breast
# HT29 colon = test system: HT29 colon
# IGROV1 ovarian = test system: IGROV1 ovarian
# K-562 leukemia = test system: K-562 leukemia
# KM12 colon = test system: KM12 colon
# LOX IMVI melanoma = test system: LOX IMVI melanoma
# M14 melanoma = test system: M14 melanoma
# MCF7 breast = test system: MCF7 breast
# MDA-MB-231 breast = test system: MDA-MB-231 breast
# MDA-MB-435 melanoma = test system: MDA-MB-435 melanoma
# MDA-MB-468 breast = test system: MDA-MB-468 breast
# MOLT-4 leukemia = test system: MOLT-4 leukemia
# NCI-H226 lung = test system: NCI-H226 lung
# NCI-H23 lung = test system: NCI-H23 lung
# NCI-H322M lung = test system: NCI-H322M lung
# NCI-H460 NSCLC = test system: NCI-H460 NSCLC
# NCI-H522 lung = test system: NCI-H522 lung
# NCI/ADR-RES ovarian = test system: NCI/ADR-RES ovarian
# OVCAR-3 ovarian = test system: OVCAR-3 ovarian
# OVCAR-4 ovarian = test system: OVCAR-4 ovarian
# OVCAR-5 ovarian = test system: OVCAR-5 ovarian
# OVCAR-8 ovarian = test system: OVCAR-8 ovarian
# PC-3 prostate = test system: PC-3 prostate
# RPMI-8226 leukemia = test system: RPMI-8226 leukemia
# RXF 393 renal = test system: RXF 393 renal
# SF-268 CNS = test system: SF-268 CNS
# SF-295 CNS = test system: SF-295 CNS
# SF-539 CNS = test system: SF-539 CNS
# SK-MEL-2 melanoma = test system: SK-MEL-2 melanoma
# SK-MEL-28 melanoma = test system: SK-MEL-28 melanoma
# SK-MEL-5 melanoma = test system: SK-MEL-5 melanoma
# SN12C renal = test system: SN12C renal
# SNB-19 CNS = test system: SNB-19 CNS
# SNB-75 CNS = test system: SNB-75 CNS
# SW-620 colon = test system: SW-620 colon
# T-47D breast = test system: T-47D breast
# TK-10 renal = test system: TK-10 renal
# U251 glioblastoma = test system: U251 glioblastoma
# UACC-257 melanoma = test system: UACC-257 melanoma
# UACC-62 melanoma = test system: UACC-62 melanoma
# UO-31 renal = test system: UO-31 renal
smiles,measurement,setting,value
Nc1cc(C(F)F)c(-c2nc(N3[C@@H]4CC[C@H]3COC4)nc(N3[C@@H]4CC[C@H]3COC4)n2)cn1,GI50,786-0 renal,639 nM
same,TGI,786-0 renal,> 100000 nM
same,GI50,A498 renal,89.9 nM
same,TGI,A498 renal,3630 nM
same,GI50,A549 NSCLC,338 nM
same,TGI,A549 NSCLC,> 100000 nM
same,GI50,ACHN renal,426 nM
same,TGI,ACHN renal,> 100000 nM
same,GI50,BT-549 breast,261 nM
same,TGI,BT-549 breast,2640 nM
same,GI50,CAKI-1 renal,311 nM
same,TGI,CAKI-1 renal,3670 nM
same,GI50,CCRF-CEM leukemia,301 nM
same,TGI,CCRF-CEM leukemia,38000 nM
same,GI50,COLO 205 colon,368 nM
same,TGI,COLO 205 colon,> 100000 nM
same,GI50,DU-145 prostate,525 nM
same,TGI,DU-145 prostate,> 100000 nM
same,GI50,EKVX NSCLC,345 nM
same,TGI,EKVX NSCLC,12000 nM
same,GI50,HCC-2998 colon,407 nM
same,TGI,HCC-2998 colon,> 100000 nM
same,GI50,HCT-116 colon,1440 nM
same,TGI,HCT-116 colon,> 100000 nM
same,GI50,HCT-15 colon,419 nM
same,TGI,HCT-15 colon,> 100000 nM
same,GI50,HL-60(TB) leukemia,2530 nM
same,TGI,HL-60(TB) leukemia,> 100000 nM
same,GI50,HOP-62 NSCLC,497 nM
same,TGI,HOP-62 NSCLC,7530 nM
same,GI50,HOP-92 NSCLC,560 nM
same,TGI,HOP-92 NSCLC,> 100000 nM
same,GI50,HS 578T breast,138 nM
same,TGI,HS 578T breast,687 nM
same,GI50,HT29 colon,4210 nM
same,TGI,HT29 colon,> 100000 nM
same,GI50,IGROV1 ovarian,188 nM
same,TGI,IGROV1 ovarian,980 nM
same,GI50,K-562 leukemia,523 nM
same,TGI,K-562 leukemia,> 100000 nM
same,GI50,KM12 colon,320 nM
same,TGI,KM12 colon,> 100000 nM
same,GI50,LOX IMVI melanoma,464 nM
same,TGI,LOX IMVI melanoma,> 100000 nM
same,GI50,M14 melanoma,358 nM
same,TGI,M14 melanoma,> 100000 nM
same,GI50,MCF7 breast,143 nM
same,TGI,MCF7 breast,> 100000 nM
same,GI50,MDA-MB-231 breast,338 nM
same,TGI,MDA-MB-231 breast,> 100000 nM
same,GI50,MDA-MB-435 melanoma,499 nM
same,TGI,MDA-MB-435 melanoma,32200 nM
same,GI50,MDA-MB-468 breast,201 nM
same,TGI,MDA-MB-468 breast,980 nM
same,GI50,MOLT-4 leukemia,158 nM
same,TGI,MOLT-4 leukemia,9690 nM
same,GI50,NCI-H226 lung,196 nM
same,TGI,NCI-H226 lung,2840 nM
same,GI50,NCI-H23 lung,2180 nM
same,TGI,NCI-H23 lung,> 100000 nM
same,GI50,NCI-H322M lung,398 nM
same,TGI,NCI-H322M lung,> 100000 nM
same,GI50,NCI-H460 NSCLC,105 nM
same,TGI,NCI-H460 NSCLC,> 100000 nM
same,GI50,NCI-H522 lung,183 nM
same,TGI,NCI-H522 lung,7620 nM
same,GI50,NCI/ADR-RES ovarian,921 nM
same,TGI,NCI/ADR-RES ovarian,> 100000 nM
same,GI50,OVCAR-3 ovarian,349 nM
same,TGI,OVCAR-3 ovarian,> 100000 nM
same,GI50,OVCAR-4 ovarian,178 nM
same,TGI,OVCAR-4 ovarian,2210 nM
same,GI50,OVCAR-5 ovarian,718 nM
same,TGI,OVCAR-5 ovarian,> 100000 nM
same,GI50,OVCAR-8 ovarian,545 nM
same,TGI,OVCAR-8 ovarian,> 100000 nM
same,GI50,PC-3 prostate,253 nM
same,TGI,PC-3 prostate,> 100000 nM
same,GI50,RPMI-8226 leukemia,28.7 nM
same,TGI,RPMI-8226 leukemia,198 nM
same,GI50,RXF 393 renal,198 nM
same,TGI,RXF 393 renal,1580 nM
same,GI50,SF-268 CNS,1120 nM
same,TGI,SF-268 CNS,> 100000 nM
same,GI50,SF-295 CNS,215 nM
same,TGI,SF-295 CNS,1930 nM
same,GI50,SF-539 CNS,451 nM
same,TGI,SF-539 CNS,> 100000 nM
same,GI50,SK-MEL-2 melanoma,2120 nM
same,TGI,SK-MEL-2 melanoma,9780 nM
same,GI50,SK-MEL-28 melanoma,446 nM
same,TGI,SK-MEL-28 melanoma,> 100000 nM
same,GI50,SK-MEL-5 melanoma,251 nM
same,TGI,SK-MEL-5 melanoma,1530 nM
same,GI50,SN12C renal,347 nM
same,TGI,SN12C renal,> 100000 nM
same,GI50,SNB-19 CNS,3030 nM
same,TGI,SNB-19 CNS,> 100000 nM
same,GI50,SNB-75 CNS,170 nM
same,TGI,SNB-75 CNS,873 nM
same,GI50,SW-620 colon,1510 nM
same,TGI,SW-620 colon,> 100000 nM
same,GI50,T-47D breast,104 nM
same,TGI,T-47D breast,509 nM
same,GI50,TK-10 renal,384 nM
same,TGI,TK-10 renal,8800 nM
same,GI50,U251 glioblastoma,769 nM
same,TGI,U251 glioblastoma,> 100000 nM
same,GI50,UACC-257 melanoma,1500 nM
same,TGI,UACC-257 melanoma,> 100000 nM
same,GI50,UACC-62 melanoma,389 nM
same,TGI,UACC-62 melanoma,5930 nM
same,GI50,UO-31 renal,216 nM
same,TGI,UO-31 renal,796 nM
